Experimental findings from patent US8481539B2, “Alkynylaryl compounds and salts thereof, pharmaceutical compositions comprising same, methods of preparing same and uses of same” (Bayer Intellectual Property GmbH, priority 2007, dated 2013) are described below.

Molecules are shown by their SMILES.

Assay [1] concerns the target T1, human Trk-A (Homo sapiens, UniProt P04629).
T1 construct: C-terminal fragment of human Trk-A (amino acids G443-G796); GST; His; purchased Proqinase [Freiburg i.Brsg., Germany]; host or cells: insect cells [SF9]
Briefly: TrkA HTRF Assay (assay 7). It is filed as biochemical. The settings on record: pIC50 class; 10 μM ATP; read-out: Enzymatic TrkA activity (assay 7). The source says:
Trk-A inhibitory activity of compounds of the present invention was quantified employing the Trk-A HTRF assay as described in the following paragraphs.
As kinase, a GST-His fusion protein containing a C-terminal fragment of human Trk-A (amino acids G443-G796, expressed in insect cells [SF9] and purified by affinity chromatography, purchased from Proqinase [Freiburg i.Brsg., Germany] was used. As substrate for the kinase reaction the biotinylated poly-Glu, Tyr (4:1) copolymer (#61GT0BLA) from Cis Biointernational (Marcoule, France) was used. For the assay 50 nl of a 100 fold concentrated solution of the test compound in DMSO was pipetted into a black low volume 384 well microtiter plate (Greiner Bio-One, Frickenhausen, Germany), 2 μl of a solution of TrkA in aqueous assay buffer [8 mM MOPS/NaOH pH 7.0, 10 mM Mg(OAc)2, 1 mM dithiothreitol, 0.01% (v/v) NP-40 (Fluka), 0.2 mM EDTA] were added and the mixture was incubated for 15 min at 22° C. to allow pre-binding of the test compounds to the enzyme before the start of the kinase reaction. Then the kinase reaction was started by the addition of 3 μl of a solution of adenosine-tri-phosphate (ATP, 16.7 μM=>final conc. in the 5 μl assay volume is 10 μM) and substrate (2.27 μg/ml=>final conc. in the 5 μl assay volume is 1.36 μg/ml [˜30 nM]) in assay buffer and the resulting mixture was incubated for a reaction time of 60 min at 22° C. The concentration of Trk-A in the assay was adjusted depending of the activity of the enzyme lot and was chosen appropriate to have the assay in the linear range, typical enzyme concentrations were in the range of about 60 pg/μl (final conc. in the 5 μl assay volume). The reaction was stopped by the addition of 5 μl of a solution of HTRF detection reagents (200 nM streptavidine-XLent [Cis Biointernational] and 1.4 nM PT66-Eu-Chelate, an europium-chelate labelled anti-phospho-tyrosine antibody from Perkin Elmer) in an aqueous EDTA-solution (100 mM EDTA, 0.2% (w/v) bovine serum albumin in 50 mM HEPES/NaOH pH 7.5).
(§1) The resulting mixture was incubated 1 h at 22° C. to allow the binding of the biotinylated phosphorylated peptide to the streptavidine-XLent and the PT66-Eu-Chelate. Subsequently the amount of phosphorylated substrate was evaluated by measurement of the resonance energy transfer from the PT66-Eu-Chelate to the streptavidine-XLent. Therefore, the fluorescence emissions at 620 nm and 665 nm after excitation at 350 nm was measured in a HTRF reader, e.g. a Rubystar (BMG Labtechnologies, Offenburg, Germany) or a Viewlux (Perkin-Elmer). The ratio of the emissions at 665 nm and at […] was taken as the measure for the amount of phosphorylated substrate. The data were normalised (enzyme reaction without inhibitor=0% inhibition, all other assay components but no enzyme=100% inhibition).

For assay [2], the target named is T2, human insuline receptor (Ins-R) (Homo sapiens, UniProt P06213).
T2 construct: GST-tagged recombinant kinase domain of the human insuline receptor; GST; purchased ProQinase, Freiburg, Germany; host or cells: SF-9 cells
T2 sequence (P06213 1023-1298 limits assumed): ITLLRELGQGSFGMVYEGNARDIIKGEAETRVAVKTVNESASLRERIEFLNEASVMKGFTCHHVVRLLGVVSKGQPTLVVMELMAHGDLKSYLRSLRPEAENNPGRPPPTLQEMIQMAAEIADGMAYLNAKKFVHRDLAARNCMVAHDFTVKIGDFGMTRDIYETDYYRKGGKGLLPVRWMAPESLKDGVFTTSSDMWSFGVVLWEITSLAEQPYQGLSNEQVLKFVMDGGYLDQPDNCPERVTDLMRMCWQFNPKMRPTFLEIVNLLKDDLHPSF
Briefly: Insulin Receptor HTRF Assay (assay 4). It is filed as biochemical. The settings on record: pIC50 class; 10 μM ATP; read-out: Enzymatic InsR activity (assay 4). The procedure: Assay 4: Insulin Receptor HTRF Assay
Inhibitory activity of compounds against the kinase activity of the insulin receptor was quantified employing the Ins-R HTRF assay as described in the following paragraphs.
GST-tagged recombinant kinase domain of the human insuline receptor (Ins-R, purchase from ProQinase, Freiburg, Germany) expressed in SF-9 cells was used as kinase. As substrate for the kinase reaction biotinylated poly-(Glu, Tyr) (Cis biointernational, France) was used.
Ins-R was incubated for 20 min at 22° C. in the presence of different concentrations of test compounds in 5 μl assay buffer [50 mM Hepes/NaOH pH 7, 15 mM MnCl2, 1 mM dithiothreitol, 0.1 μM sodium ortho-vanadate, 0.015% (v/v) PEG20000, 10 μM adenosine-tri-phosphate (ATP), 0.3 μg/ml substrate, 1% (v/v) dimethylsulfoxide]. The concentration of Ins-R was adjusted depending of the activity of the enzyme lot and was chosen appropriate to have the assay in the linear range, typical concentrations were in the range of 10 pg/μl. The reaction was stopped by the addition of 5 μl of a solution of HTRF detection reagents (0.1 μM streptavidine-XLent and 1 nM PT66-Eu-Chelate, an europium-chelate labelled anti-phospho-tyrosine antibody from Perkin Elmer) in an aqueous EDTA-solution (80 mM EDTA, 0.2% (w/v) bovine serum albumin in 50 mM HEPES/NaOH pH 7.0).
as §1, with “inhibition) and IC50 values were calculated by a 4 parameter fit using an inhouse software.” for “inhibition).”

T1 sequence (P04629 443-796): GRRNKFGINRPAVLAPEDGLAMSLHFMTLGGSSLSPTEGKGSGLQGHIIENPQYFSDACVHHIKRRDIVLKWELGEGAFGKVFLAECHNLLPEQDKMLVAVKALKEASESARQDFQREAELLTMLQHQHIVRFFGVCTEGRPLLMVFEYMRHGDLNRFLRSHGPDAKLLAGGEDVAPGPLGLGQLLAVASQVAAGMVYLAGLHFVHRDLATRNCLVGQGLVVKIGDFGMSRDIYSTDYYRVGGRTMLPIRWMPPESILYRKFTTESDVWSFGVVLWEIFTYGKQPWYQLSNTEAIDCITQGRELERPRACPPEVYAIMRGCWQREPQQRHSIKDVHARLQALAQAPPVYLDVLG

As to `Cn1ncc2c(C#Cc3cccc(NC(=O)c4cccc(C(F)(F)F)c4)c3)cncc21` [Example 1.5, N-[3-(1-Methyl-1H-pyrazolo[3,4-c]pyridin-4-ylethynyl)-phenyl]-3-trifluoromethyl-benzamide], the IC50 in assay [1] and in assay [2] was at least 10 µM in each case.
In the case of `Cc1ccc(NC(=O)c2cccc(C(F)(F)F)c2)cc1C#Cc1cncc2c1cnn2C` [Example 1.6, N-[4-Methyl-3-(1-methyl-1H-pyrazolo[3,4-c]pyridin-4-ylethynyl)-phenyl]-3-trifluoromethyl-benzamide], the IC50 in assay [1] and in assay [2] was at least 10 µM throughout.
In the case of `Cn1ncc2c(C#Cc3cc(NC(=O)c4cccc(C(F)(F)F)c4)ccc3F)cncc21` [Example 1.9, N-[4-Fluoro-3-(1-methyl-1H-pyrazolo[3,4-c]pyridin-4-ylethynyl)-phenyl]-3-trifluoromethyl-benzamide], the IC50 in assay [1] and in assay [2] was at least 10 µM each time.
Regarding `Cn1ncc2c(C#Cc3cccc(NC(=O)Nc4ccccc4)c3)cncc21` [Example 2.1, 1-[3-(1-Methyl-1H-pyrazolo[3,4-c]pyridin-4-ylethynyl)-phenyl]-3-phenyl-urea], in assay [1], the IC50 was at least 10 µM.
Turning to `Cc1ccc(NC(=O)Nc2cccc(C(F)(F)F)c2)cc1C#Cc1cncc2c1cnn2C` [Example 2.4, 1-[4-Methyl-3-(1-methyl-1H-pyrazolo[3,4-c]pyridin-4-ylethynyl)-phenyl]-3-(3-trifluoromethyl-phenyl)-urea], the IC50 in assay [1] is at least 10 µM.
